For one series, the system named is H. pylori (ATCC 43504). In words: Minimum inhibitory concentration by agar dilution method. Format: cell-based, Helicobacter pylori. Set-up: key: scored positive (+) for inhibition/eradication of colonies growth; negative (−) for no effect upon growth colonies. The following applies: 0.3 μg/ml; 37° C., 72 hours, n=2. Here is the method: Minimum inhibitory concentration is determined by the agar dilution method. 2 mg of test substance, composition of geranium oil and extracts from S. flavescenes prepared for injections (MIC-1), is dissolved and serially diluted in solvent (distilled water) to desired stock concentrations. For each concentration tested, a 10 μl aliquot is added to a 48-well plate containing 0.99 ml of Columbia agar base supplemented with 7% defibrinated rabbit blood. The inoculum of H. pylori (ATCC 43504) is prepared by suspending in brain heart infustion broth to a density of 5×10^8 CFU/ml. A multiprong-incubating device is used to place approximately 5×10^5 CFU/ml per spot onto the containing agent media. […] The plates are incubated at 37° C. for 72 hours in the microaerophilic condition (mixed gas N2 85%, CO2 10%, and O2 5%) and then visually examined and scored positive (+) for inhibition/eradication of colonies growth or negative (−) for no effect upon growth colonies. […] Each concentration is evaluated in duplicate.
Minimum inhibitory concentration is determined by the agar dilution method. […] The plates are incubated at 37° C. for 72 hours in the microaerophilic condition (mixed gas N2 85%, CO2 10%, and O2 5%) and then visually examined and scored positive (+) for inhibition/eradication of colonies growth or negative (−) for no effect upon growth colonies. […] Each concentration is evaluated in duplicate. […]
(In general: Agar dilution tests growth on a series of plates holding different concentrations.)

A short description of series [1]: Pharmacokinetics study of intravenous injection with and without geranium oil. The class given is in vivo, mice.
The test system of series [2] is Helicobacter pylori (clinical isolate strain). The experiment in a line: Gastric ulceration after Helicobacter pylori inoculation in mice (Example 11). Format: in vivo, ICR derived mice. The following applies: 24.5 ml/kg × 2 × 7 PO (text: 24.5 mg/kg). Here is the method: Seven groups of 5 male ICR derived mice weighing 24±2 grams were fasted for 18 hours before the intragastric inoculation of Helicobacter pylori (clinical isolate strain) in suspension at 1.5×10^9 CFU/0.4 ml/mouse. […] Subsequently, test substances and vehicle were each administered orally twice daily (9:00 A.M. and 16:00 P.M.) for […]. omeprazole 1 mg/kg and clarithromycin 10 mg/kg in combination was used as a positive control agent and was administered orally to test animals once daily (9:00 A.M.) for 7 consecutive days. Seven days after infection, on day eight, all animals with overnight fasting were sacrificed and the stomachs were dissected along the greater curvature. Gastric ulceration was scored at four levels according to the degree of hemorrhage and the severity of ulcerative lesions: 0=normal appearance, 1=mild red spots, 2=moderate red spots and/or hemorrhage spots, 3=marked hemorrhage spots. Reduction of concurrent vehicle control score values by 50 percent or more (≧50%) is considered significant. Test substances and vehicle control (2% TWEEN 80® in 0.9% NaCl solution) were each administered orally to test animals twice daily for 7 consecutive days. The Helicobacter pylori (1.5×10^9 CFU/0.4 ml/mouse) inoculation was applied one hour before the first dosing on day 1. […]

“And” between values parts separate entries of the source, which are not always exact repeats. Equal entries are not always repeated.

As to gentamicin, the “Result (inhibition/eradication of colonies growth)” value in the series with H. pylori (ATCC 43504) is recorded as “+”.

In the case of `O=C1CCC[C@@H]2[C@H]3CCCN4CCC[C@@H](CN12)[C@@H]34` [matrine], the “effect of addition of geranium oil on absorption and metabolism (HPLC peak areas over time)” value in series [1] (intravenous injection, mice, with geranium oil vs alone) is “increase the absorption and metabolism”.

Regarding `O=C1CCC[C@@H]2[C@H]3CCC[N+]4([O-])CCC[C@@H](CN12)[C@@H]34` (some centres unmarked) [oxymatrine], the “effect of addition of geranium oil on absorption and metabolism (HPLC peak areas over time)” value in series [1] (mouse, in vivo, iv) is “increase the absorption and metabolism”.

`CC(C)=CCCC(C)CCO` (centres unmarked) [MIC-20, citronellol]: the “Ulceration Score Total” value in series [2] (N=5) came to 3. Also, in series [2] (mice 1-5, score 0-3), the “Ulceration Score Individual” value is 0 (3×) and 2 and 1.

The values are drawn from US20080119567A1, “Methods of use of herbal compositions” (priority 2003, published 2008).
